{"source": "ChEMBL document CHEMBL5260839", "about": "(J Med Chem, 2019)", "key": {"RS4-11 [1]": {"system": "RS4-11", "experiment": "Induction of apoptosis in human RS4-11 cells incubated for 24 hrs by Annexin-V/PI staining based flow cytometric analysis", "assay_type": "functional, cell-based"}, "RS4-11 [2]": {"system": "RS4-11", "experiment": "Potency index, ratio of MI-1061 IC50 to test compound IC50 for inhibition of cell growth in human RS4-11 cells incubated for 4 days by lactate dehydrogenase based WST-8 assay", "assay_type": "functional", "conditions": "time 4 day"}, "RS4-11 [3]": {"system": "RS4-11", "experiment": "Inhibition of cell growth in human RS4-11 cells incubated for 4 days in the presence of lenalidomide by Lactate dehydrogenase based WST-8 assay", "assay_type": "functional", "conditions": "time 4.0 day"}, "MV4-11 [4]": {"system": "MV4-11", "experiment": "Inhibition of cell growth in human MV4-11 cells incubated for 4 days in the presence of lenalidomide by Lactate dehydrogenase based WST-8 assay", "assay_type": "functional", "conditions": "time 4.0 day"}, "MV4-11 [5]": {"system": "MV4-11", "experiment": "Potency index, ratio of MI-1061 IC50 to test compound IC50 for inhibition of cell growth in human MV4-11 cells incubated for 4 days by lactate dehydrogenase based WST-8 assay", "assay_type": "functional", "conditions": "time 4 day"}, "[6]": {"target": "T1, Protein cereblon/E3 ubiquitin-protein ligase Mdm2 (Homo sapiens) (UniProt Q00987+Q96SW2)", "T1 sequence (Q00987 whole entry, looked up)": "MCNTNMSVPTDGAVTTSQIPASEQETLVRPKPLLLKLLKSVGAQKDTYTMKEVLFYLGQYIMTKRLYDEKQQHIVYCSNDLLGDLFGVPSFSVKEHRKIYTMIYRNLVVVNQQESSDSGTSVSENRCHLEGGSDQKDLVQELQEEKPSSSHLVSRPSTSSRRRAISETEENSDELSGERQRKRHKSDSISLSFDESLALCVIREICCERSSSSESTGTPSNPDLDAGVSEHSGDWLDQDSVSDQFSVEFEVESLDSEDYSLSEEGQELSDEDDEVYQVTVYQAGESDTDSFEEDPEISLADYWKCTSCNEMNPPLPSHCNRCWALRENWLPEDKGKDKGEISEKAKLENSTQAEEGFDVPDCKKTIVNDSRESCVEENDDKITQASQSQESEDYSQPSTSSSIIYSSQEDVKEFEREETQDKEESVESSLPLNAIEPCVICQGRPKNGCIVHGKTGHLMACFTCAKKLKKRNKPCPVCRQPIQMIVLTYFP", "T1 sequence (Q96SW2 whole entry, looked up)": "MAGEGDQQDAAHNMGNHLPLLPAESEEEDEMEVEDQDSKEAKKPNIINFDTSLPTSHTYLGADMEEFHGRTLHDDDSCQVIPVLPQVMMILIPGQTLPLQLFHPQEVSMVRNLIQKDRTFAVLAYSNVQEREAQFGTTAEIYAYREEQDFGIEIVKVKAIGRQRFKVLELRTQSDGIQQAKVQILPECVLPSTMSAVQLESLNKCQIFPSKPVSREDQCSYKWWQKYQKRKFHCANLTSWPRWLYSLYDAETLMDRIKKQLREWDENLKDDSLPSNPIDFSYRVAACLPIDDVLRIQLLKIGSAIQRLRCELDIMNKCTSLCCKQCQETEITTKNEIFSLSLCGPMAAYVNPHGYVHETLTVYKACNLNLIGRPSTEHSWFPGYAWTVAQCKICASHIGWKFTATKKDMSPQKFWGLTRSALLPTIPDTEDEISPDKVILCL", "experiment": "PROTAC activity at CRBN/MDM2 in human RS4-11 cells harbouring wildtype p53 assessed as upregulation of TP53 mRNA expression at 0.03 to 0.1 uM incubated for 6 hrs by qRT-PCR analysis", "assay_type": "cell-based", "conditions": "dose 0.03-0.1 µM"}, "[7]": {"target": "T1, Protein cereblon/E3 ubiquitin-protein ligase Mdm2 (Homo sapiens)", "experiment": "PROTAC activity at CRBN/MDM2 in human MV4-11 cells assessed as upregulation of p53 mRNA expression at 0.1 to 0.3 uM incubated for 6 hrs by qRT-PCR analysis", "assay_type": "cell-based", "conditions": "dose 0.1-0.3 µM"}, "[8]": {"target": "T1, Protein cereblon/E3 ubiquitin-protein ligase Mdm2 (Homo sapiens)", "experiment": "PROTAC activity at CRBN/MDM2 in human MV4-11 cells assessed as upregulation of MDM2 mRNA expression at 0.1 to 0.3 uM incubated for 6 hrs by qRT-PCR analysis", "assay_type": "cell-based", "conditions": "dose 0.1-0.3 µM"}, "[9]": {"target": "T1, Protein cereblon/E3 ubiquitin-protein ligase Mdm2 (Homo sapiens)", "experiment": "PROTAC activity at CRBN/MDM2 in human MV4-11 cells assessed as upregulation of p21 mRNA expression at 0.1 to 0.3 uM incubated for 6 hrs by qRT-PCR analysis", "assay_type": "cell-based", "conditions": "dose 0.1-0.3 µM"}, "[10]": {"target": "T1, Protein cereblon/E3 ubiquitin-protein ligase Mdm2 (Homo sapiens)", "experiment": "PROTAC activity at CRBN/MDM2 in human MV4-11 cells assessed as upregulation of PUMA mRNA expression at 0.1 to 0.3 uM incubated for 6 hrs by qRT-PCR analysis", "assay_type": "cell-based", "conditions": "dose 0.1-0.3 µM"}, "[11]": {"target": "T1, Protein cereblon/E3 ubiquitin-protein ligase Mdm2 (Homo sapiens)", "experiment": "PROTAC activity at CRBN/MDM2 in human MV4-11 cells assessed as upregulation of TP53 mRNA expression at 0.1 to 0.3 uM incubated for 6 hrs by qRT-PCR analysis", "assay_type": "cell-based", "conditions": "dose 0.1-0.3 µM"}, "RS4-11 [12]": {"system": "RS4-11", "experiment": "Induction of apoptosis in human RS4-11 cells at 0.001 to 1 uM incubated for 24 hrs by Annexin-V/PI staining based flow cytometric analysis relative to MI-1061", "assay_type": "functional", "conditions": "dose 0.001-1 µM"}, "MOLM-13 [13]": {"system": "MOLM-13", "experiment": "Potency index, ratio of MI-1061 IC50 to test compound IC50 for inhibition of cell growth in human MOLM-13 cells harbouring wild type p53 incubated for 4 days by lactate dehydrogenase based WST-8 assay", "assay_type": "functional", "conditions": "time 4 day"}, "MOLM-14 [14]": {"system": "MOLM-14", "experiment": "Potency index, ratio of MI-1061 IC50 to test compound IC50 for inhibition of cell growth in human MOLM-14 cells harbouring wild type p53 incubated for 4 days by lactate dehydrogenase based WST-8 assay", "assay_type": "functional", "conditions": "time 4 day"}, "SIG-M5 [15]": {"system": "SIG-M5", "experiment": "Potency index, ratio of MI-1061 IC50 to test compound IC50 for inhibition of cell growth in human SIG-M5 cells harbouring wild type p53 incubated for 4 days by lactate dehydrogenase based WST-8 assay", "assay_type": "functional", "conditions": "time 4 day"}, "ML-2 [16]": {"system": "ML-2", "experiment": "Potency index, ratio of MI-1061 IC50 to test compound IC50 for inhibition of cell growth in human ML-2 cells harbouring wild type p53 incubated for 4 days by lactate dehydrogenase based WST-8 assay", "assay_type": "functional", "conditions": "time 4 day"}, "OCI-AML-5 [17]": {"system": "OCI-AML-5", "experiment": "Potency index, ratio of MI-1061 IC50 to test compound IC50 for inhibition of cell growth in human OCI-AML5 cells harbouring wild type p53 incubated for 4 days by lactate dehydrogenase based WST-8 assay", "assay_type": "functional", "conditions": "time 4 day"}, "RS4-11 [18]": {"system": "RS4-11", "experiment": "Antitumor activity against human RS4-11 cells xenografted in mouse assessed as reduction in tumor growth at 25 mg/kg, iv administered for a week", "assay_type": "functional, organism-based", "conditions": "time 1.0 weeks"}, "RS4-11 [19]": {"system": "RS4-11", "experiment": "Antitumor activity against human RS4-11 cells xenografted in mouse assessed as reduction in tumor growth at 10 mg/kg, iv administered three times a week", "assay_type": "functional, organism-based", "conditions": "time 1.0 weeks"}, "RS4-11 [20]": {"system": "RS4-11", "experiment": "Antitumor activity against human RS4-11 cells xenografted in mouse assessed as reduction in tumor growth at 25 mg/kg, iv administered three times a week relative to control", "assay_type": "functional", "set-up": "scale not given: the % may be the effect or the level left", "conditions": "time 1 weeks"}, "[21]": {"experiment": "Toxicity in mouse xenografted with human RS4-11 cells assessed as weight loss at 10 to 25 mg/kg, iv administered three times a week", "assay_type": "organism-based", "conditions": "in vivo, 168 h, dose 10-25 mg/kg, time 1 weeks"}, "[22]": {"experiment": "Toxicity in mouse xenografted with human RS4-11 cells assessed as signs of toxicity at 10 to 25 mg/kg, iv administered three times a week", "assay_type": "organism-based", "conditions": "in vivo, 168 h, dose 10-25 mg/kg, time 1 weeks"}, "[23]": {"experiment": "Toxicity in mouse xenografted with human RS4-11 cells assessed as weight loss at 25 mg/kg, iv administered for one week", "assay_type": "organism-based", "conditions": "in vivo, 168 h, time 1 weeks"}, "[24]": {"experiment": "Toxicity in mouse xenografted with human RS4-11 cells assessed as signs of toxicity at 25 mg/kg, iv administered for one week", "assay_type": "organism-based", "conditions": "in vivo, 168 h, time 1 weeks"}, "RS4-11 [25]": {"system": "RS4-11", "experiment": "Antitumor activity against human […] cells xenografted in mouse assessed as tumor regression at 25 mg/kg, administered daily 5 days a week for 2 weeks", "assay_type": "functional, organism-based"}, "RS4-11 [26]": {"system": "RS4-11", "experiment": "Antitumor activity against human RS4-11 cells xenografted in mouse assessed as tumor regression at 50 mg/kg, administered every other day for 3 weeks", "assay_type": "functional, organism-based"}, "RS4-11 [27]": {"system": "RS4-11", "experiment": "Antitumor activity against human RS4-11 cells xenografted in mouse assessed as inhibition of tumor growth at 50 mg/kg, administered once a week for 3 weeks", "assay_type": "functional, organism-based"}, "[28]": {"experiment": "Toxicity in mouse xenografted with human RS4-11 cells assessed as weight loss at 50 mg/kg, administered every other day for 3 weeks", "assay_type": "organism-based", "conditions": "in vivo, 504 h"}, "[29]": {"experiment": "Toxicity in mouse xenografted with human RS4-11 cells assessed as signs o toxicity at 50 mg/kg, administered every other day for 3 weeks", "assay_type": "organism-based", "conditions": "in vivo, 504 h"}, "[30]": {"experiment": "Toxicity in mouse xenografted with human RS4-11 cells assessed as weight loss at 50 mg/kg, administered once a week for 3 weeks", "assay_type": "organism-based", "conditions": "in vivo, 504 h"}, "[31]": {"experiment": "Toxicity in mouse xenografted with human RS4-11 cells assessed as signs of toxicity at 50 mg/kg, administered once a week for 3 weeks", "assay_type": "organism-based", "conditions": "in vivo, 504 h"}, "RS4-11 [32]": {"system": "RS4-11", "experiment": "cells", "conditions": "Homo sapiens, RS4-11, 96 h"}, "MOLM-13 [33]": {"system": "MOLM-13", "experiment": "cells", "conditions": "Homo sapiens, MOLM-13, 96 h"}, "MOLM-14 [34]": {"system": "MOLM-14", "experiment": "cells", "conditions": "Homo sapiens, MOLM-14, 96 h"}, "SIG-M5 [35]": {"system": "SIG-M5", "experiment": "cells", "conditions": "Homo sapiens, SIG-M5, 96 h"}, "ML-2 [36]": {"system": "ML-2", "experiment": "cells", "conditions": "Homo sapiens, ML-2, 96 h"}, "OCI-AML-5 [37]": {"system": "OCI-AML-5", "experiment": "cells", "conditions": "Homo sapiens, OCI-AML-5, 96 h"}, "MONO-MAC-6": {"system": "MONO-MAC-6", "experiment": "cells", "conditions": "Homo sapiens, MONO-MAC-6, 96 h"}, "KG-1": {"system": "KG-1", "experiment": "cells", "conditions": "Homo sapiens, KG-1, 96 h"}}, "note": "Activity calls are given as the source filed them. The rule behind the calls is not given here."}
{"compound": "O=C1CCC(N2Cc3c(C#CCCCNC(=O)c4ccc(NC(=O)[C@@H]5NC6(CCCCC6)[C@@]6(C(=O)Nc7cc(Cl)ccc76)[C@H]5c5cccc(Cl)c5F)cc4)cccc3C2=O)C(=O)N1", "note": "(some centres undefined)", "values": [{"measurement": "Activity", "setting": "RS4-11 [1]", "value": "Dose-Dependent Effect"}, {"measurement": "Ratio IC50", "setting": "RS4-11 [2]", "value": ">10"}, {"measurement": "inhibition", "setting": "RS4-11 [3]", "value": "inactive"}, {"measurement": "inhibition", "setting": "MV4-11 [4]", "value": "Active"}, {"measurement": "Ratio IC50", "setting": "MV4-11 [5]", "value": ">10"}, {"measurement": "Activity", "setting": "[6]", "value": "inactive"}, {"measurement": "Activity", "setting": "[7]", "value": "Active"}, {"measurement": "Activity", "setting": "[8]", "value": "Active"}, {"measurement": "Activity", "setting": "[9]", "value": "Active"}, {"measurement": "Activity", "setting": "[10]", "value": "Active"}, {"measurement": "Activity", "setting": "[11]", "value": "inactive"}, {"measurement": "fold change (FC)", "setting": "RS4-11 [12]", "value": ">10"}, {"measurement": "Ratio IC50", "setting": "MOLM-13 [13]", "value": ">10"}, {"measurement": "Ratio IC50", "setting": "MOLM-14 [14]", "value": ">10"}, {"measurement": "Ratio IC50", "setting": "SIG-M5 [15]", "value": 5.3}, {"measurement": "Ratio IC50", "setting": "ML-2 [16]", "value": ">10"}, {"measurement": "Ratio IC50", "setting": "OCI-AML-5 [17]", "value": ">10"}, {"measurement": "Activity", "setting": "RS4-11 [18]", "value": "Active"}, {"measurement": "Activity", "setting": "RS4-11 [19]", "value": "Active"}, {"measurement": "Activity", "setting": "RS4-11 [20]", "value": 50, "unit": "%"}, {"measurement": "Activity", "setting": "[21]", "value": "Non-Toxic"}, {"measurement": "Activity", "setting": "[22]", "value": "Non-Toxic"}, {"measurement": "Activity", "setting": "[23]", "value": "Non-Toxic"}, {"measurement": "Activity", "setting": "[24]", "value": "Non-Toxic"}, {"measurement": "Activity", "setting": "RS4-11 [25]", "value": "Active"}, {"measurement": "Activity", "setting": "RS4-11 [26]", "value": "Active"}, {"measurement": "Activity", "setting": "RS4-11 [27]", "value": "Active"}, {"measurement": "Activity", "setting": "[28]", "value": "Non-Toxic"}, {"measurement": "Activity", "setting": "[29]", "value": "Non-Toxic"}, {"measurement": "Activity", "setting": "[30]", "value": "Non-Toxic"}, {"measurement": "Activity", "setting": "[31]", "value": "Non-Toxic"}, {"measurement": "IC50", "setting": "RS4-11 [32]", "value": 1.5, "unit": "nM"}, {"measurement": "IC50", "setting": "MOLM-13 [33]", "value": 7.3, "unit": "nM"}, {"measurement": "IC50", "setting": "MOLM-14 [34]", "value": 10.5, "unit": "nM"}, {"measurement": "IC50", "setting": "SIG-M5 [35]", "value": 19.8, "unit": "nM"}, {"measurement": "IC50", "setting": "ML-2 [36]", "value": 4.4, "unit": "nM"}, {"measurement": "IC50", "setting": "OCI-AML-5 [37]", "value": 33.1, "unit": "nM"}, {"measurement": "IC50", "setting": "MONO-MAC-6", "value": "> 10000", "unit": "nM"}, {"measurement": "IC50", "setting": "KG-1", "value": "> 10000", "unit": "nM"}]}
